Results as given in patent US20230026259A1, “CA2 COMPOSITIONS AND METHODS FOR TUNABLE REGULATION” (Obsidian Therapeutics, Inc., priority 2019, published 2023).

Key:
Assay type in all cases: cell-based
NIH3T3 cells [1] = assay: Destabilization mutant screening of human CA2 linked to GFP, ligand response by FACS (Valdecoxib, Celecoxib, Acetazolamide)
Description: To identify destabilizing mutations of human CA2 that are stabilized upon ligand binding to CA2, two rounds of mutant screening were performed, using a lentivirus CA2 mutant library provided by Genscript (China). These methods were used to generate a library of mutant polypeptides using mutagenesis primers and error prone PCR. Lentiviral vectors expressing the template, wild-type human CA2 operably linked to GFP(OT-001986) was also provided by Genscript along with the CA2 mutant library. The library was packaged into lentivirus, transduced into NIH3T3 cells at a multiplicity of infection (MOI) of approximately 0.3 and select stable cell pools were derived by selecting with selection marker puromycin.
To identify cell pools containing destabilizing mutants of CA2 that are stabilizing when CA2 is bound to its corresponding ligand, cells were sorted using FACS. In the initial round, the bottom 15% of population that was GFP negative in the absence of ligand was selected. Cells were expanded and then treated with 10 μM Celecoxib for 24 hours and harvested for cell sorting. The top 11% GFP positive cells which were also responsive to ligand treatment compared to untreated were collected. Celecoxib was removed from the cultures and replaced with DMSO. […] Genomic DNA was isolated and amplified CA2 mutants were reintroduced to the lentiviral vectors where CA2 was operably linked to GFP. The constructs were transduced into NIH3T3 cells with lentivirus vectors for each clone. The cells were treated with 10 μM Valdecoxib or 10 μM Celecoxib for 24 hours and analyzed by FACS. […] In Table 25, the Construct ID (OT-XXXXXX) refers to the construct which includes the referenced CA2 mutant and the Library ID (LibCXXXXXX) refers to the CA2 mutant itself.
The response of NIH3T3 cells to varying doses of Valdecoxib or Celecoxib for 24 hours was measured and analyzed by FACS.
Clones treated with different ligands were compared to examine the behavior of each mutant with the ligands.

NIH3T3 cells [2] = assay: Immunoblotting of cell lysates for GFP after ligand treatment; conditions: NIH3T3 cells, 1, 3, 10 or 30 μM Celecoxib or Valdecoxib, 24 hours
Description: The protein expression in the presence of ligand was measured by immunoblotting the cell lysates for GFP.
The protein expression in the presence of ligand was measured by immunoblotting cell lysates for GFP.

NIH3T3 cells [3] = assay: Destabilization mutant screening of human CA2 linked to GFP, ligand response by FACS (Valdecoxib, Celecoxib, Acetazolamide); remark: listed apart in the source
[4] = NIH3T3, Celecoxib 0 μM, 24 hours
[5] = NIH3T3, Celecoxib 0.03 μM, 24 hours
[6] = NIH3T3, Celecoxib 0.1 μM, 24 hours
[7] = NIH3T3, Celecoxib 0.3 μM, 24 hours
[8] = NIH3T3, Celecoxib 1 μM, 24 hours
[9] = NIH3T3, Celecoxib 3 μM, 24 hours
[10] = NIH3T3, Celecoxib 10 μM, 24 hours
[11] = NIH3T3, Celecoxib 30 μM, 24 hours
[12] = NIH3T3, Valdecoxib 0 μM, 24 hours
[13] = NIH3T3, Valdecoxib 0.03 μM, 24 hours
[14] = NIH3T3, Valdecoxib 0.1 μM, 24 hours
[15] = NIH3T3, Valdecoxib 0.3 μM, 24 hours
[16] = NIH3T3, Valdecoxib 1 μM, 24 hours
[17] = NIH3T3, Valdecoxib 3 μM, 24 hours
[18] = NIH3T3, Valdecoxib 10 μM, 24 hours
[19] = NIH3T3, Valdecoxib 30 μM, 24 hours

CA2 (aa 2-260 of WT, R27L, T87I, H122Y, N252D) [LibC000226]
Median PE (NIH3T3 cells [1]; NIH3T3, 10 μM Celecoxib): 3816
SR (stabilization ratio) (NIH3T3 cells [1]; NIH3T3, 10 μM Celecoxib vs DMSO): 8.65
Median PE (NIH3T3 cells [1]; NIH3T3, 10 μM Valdecoxib): 3588
SR (stabilization ratio) (NIH3T3 cells [1]; NIH3T3, 10 μM Valdecoxib vs DMSO): 7.93
Median FITC / Median PE (NIH3T3 cells [1]; NIH3T3, Acetazolamide 0.03 μM, 24 hours): 499
Fold change (NIH3T3 cells [1]; NIH3T3, Acetazolamide 0.1 μM vs DMSO): 1.85
Median FITC / Median PE (NIH3T3 cells [1]; NIH3T3, Acetazolamide 0.1 μM, 24 hours): 704
Fold change (NIH3T3 cells [1]; NIH3T3, Acetazolamide 0.3 μM vs DMSO): 3.58
Median FITC / Median PE (NIH3T3 cells [1]; NIH3T3, Acetazolamide 0.3 μM, 24 hours): 1360
Fold change (NIH3T3 cells [1]; NIH3T3, Acetazolamide 1 μM vs DMSO): 9.46
Median FITC / Median PE (NIH3T3 cells [1]; NIH3T3, Acetazolamide 1 μM, 24 hours): 3594
Fold change (NIH3T3 cells [1]; NIH3T3, Acetazolamide 3 μM vs DMSO): 17.49
Median FITC / Median PE (NIH3T3 cells [1]; NIH3T3, Acetazolamide 3 μM, 24 hours): 6645
Fold change (NIH3T3 cells [1]; NIH3T3, Acetazolamide 10 μM vs DMSO): 24.46
Median FITC / Median PE (NIH3T3 cells [1]; NIH3T3, Acetazolamide 10 μM, 24 hours): 9295
Fold change (NIH3T3 cells [1]; NIH3T3, Acetazolamide 30 μM vs DMSO): 28.68
Median FITC / Median PE (NIH3T3 cells [1]; NIH3T3, Acetazolamide 30 μM, 24 hours): 10900
Med (median fluorescence intensity) (NIH3T3 cells [1]; [4]): 531
SR (stabilization ratio) (NIH3T3 cells [1]; [4]): 1
Med (median fluorescence intensity) (NIH3T3 cells [1]; [5]): 711
SR (stabilization ratio) (NIH3T3 cells [1]; [5]): 1.34
Med (median fluorescence intensity) (NIH3T3 cells [1]; [6]): 661
SR (stabilization ratio) (NIH3T3 cells [1]; [6]): 1.24
Med (median fluorescence intensity) (NIH3T3 cells [1]; [7]): 750
SR (stabilization ratio) (NIH3T3 cells [1]; [7]): 1.41
Med (median fluorescence intensity) (NIH3T3 cells [1]; [8]): 1207
SR (stabilization ratio) (NIH3T3 cells [1]; [8]): 2.27
Med (median fluorescence intensity) (NIH3T3 cells [1]; [9]): 2544
SR (stabilization ratio) (NIH3T3 cells [1]; [9]): 4.79
Med (median fluorescence intensity) (NIH3T3 cells [1]; [10]): 5227
SR (stabilization ratio) (NIH3T3 cells [1]; [10]): 9.84
Med (median fluorescence intensity) (NIH3T3 cells [1]; [11]): 7171
SR (stabilization ratio) (NIH3T3 cells [1]; [11]): 13.5
Median PE (NIH3T3 cells [1]; NIH3T3, DMSO): 441
SR (stabilization ratio) (NIH3T3 cells [1]; NIH3T3, DMSO (reference)): 1
Median FITC / Median PE (NIH3T3 cells [1]; NIH3T3, DMSO, 24 hours (Acetazolamide experiment)): 380
Med (median fluorescence intensity) (NIH3T3 cells [1]; [12]): 531
SR (stabilization ratio) (NIH3T3 cells [1]; [12]): 1
Med (median fluorescence intensity) (NIH3T3 cells [1]; [13]): 580
SR (stabilization ratio) (NIH3T3 cells [1]; [13]): 1.09
Med (median fluorescence intensity) (NIH3T3 cells [1]; [14]): 623
SR (stabilization ratio) (NIH3T3 cells [1]; [14]): 1.17
Med (median fluorescence intensity) (NIH3T3 cells [1]; [15]): 655
SR (stabilization ratio) (NIH3T3 cells [1]; [15]): 1.23
Med (median fluorescence intensity) (NIH3T3 cells [1]; [16]): 873
SR (stabilization ratio) (NIH3T3 cells [1]; [16]): 1.64
Med (median fluorescence intensity) (NIH3T3 cells [1]; [17]): 1572
SR (stabilization ratio) (NIH3T3 cells [1]; [17]): 2.96
Med (median fluorescence intensity) (NIH3T3 cells [1]; [18]): 3902
SR (stabilization ratio) (NIH3T3 cells [1]; [18]): 7.35
Med (median fluorescence intensity) (NIH3T3 cells [1]; [19]): 6245
SR (stabilization ratio) (NIH3T3 cells [1]; [19]): 11.76
stabilization with varying doses of Valdecoxib or Celecoxib (NIH3T3 cells [1]; NIH3T3 cells, 24 hours, FACS): dose dependent stabilization
GFP protein expression by immunoblot, Celecoxib or Valdecoxib (NIH3T3 cells [2]): stabilization of GFP with increasing ligand doses
Fold change (NIH3T3 cells [3]; NIH3T3, Acetazolamide 0.03 μM vs DMSO): 1.31
Fold change (NIH3T3 cells [3]; NIH3T3, DMSO (reference), Acetazolamide experiment): 1
